Measurements: patent US11440898B2, “Isoquinoline compounds, methods for their preparation, and therapeutic uses thereof in conditions associated with the alteration of the activity of beta galactosidase” (Minoryx Therapeutics S.L., priority 2016, dated 2022)

Target: T1, mutated beta-galactosidase (p.R60H canine GLB1) in GM11473 fibroblasts (Canis lupus familiaris, UniProt Q9TRY9, R60H)
T1 construct: host or cells: GM11473 canine GM1 gangliosidosis fibroblasts
T1 sequence (Q9TRY9 30-668 R60H): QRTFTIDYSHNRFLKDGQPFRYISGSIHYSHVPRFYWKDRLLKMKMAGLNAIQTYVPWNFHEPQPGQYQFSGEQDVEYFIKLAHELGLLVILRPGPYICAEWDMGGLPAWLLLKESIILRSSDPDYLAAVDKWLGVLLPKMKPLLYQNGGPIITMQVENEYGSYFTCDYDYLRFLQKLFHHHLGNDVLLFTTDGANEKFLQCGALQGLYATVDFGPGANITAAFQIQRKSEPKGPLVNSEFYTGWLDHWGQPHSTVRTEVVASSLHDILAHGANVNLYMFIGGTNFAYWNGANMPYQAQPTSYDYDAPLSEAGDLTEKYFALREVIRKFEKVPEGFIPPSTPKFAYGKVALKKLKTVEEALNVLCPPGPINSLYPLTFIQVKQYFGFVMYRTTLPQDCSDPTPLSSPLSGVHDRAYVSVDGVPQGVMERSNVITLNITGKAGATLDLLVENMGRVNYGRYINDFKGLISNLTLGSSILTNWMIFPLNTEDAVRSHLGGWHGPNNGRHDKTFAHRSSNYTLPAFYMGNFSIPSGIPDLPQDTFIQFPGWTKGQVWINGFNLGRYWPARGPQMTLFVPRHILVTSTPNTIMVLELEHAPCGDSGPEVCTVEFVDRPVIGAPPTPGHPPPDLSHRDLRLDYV
Experiment: Enhancement of β-galactosidase activity measured in GM1 fibroblasts (GM11473), 4-MU-β-D-galactopyranoside substrate
Assay type: cell-based
Set-up: key: Increase in comparison with non-treated of >2.5 fold is shown as A; Increase in comparison with non-treated of >1.7-2.5 fold is shown as B; Increase in comparison with non-treated of 1.2-1.7 fold is shown as C; D means that no increase compared with non-treated cells was detected in this method
Conditions: increase in β-galactosidase enzyme activity vs non-treated cells, concentrations between 6 and 50 μM, 4 days incubation
Method: The capacity of the Compounds of the Disclosure to enhance mutated beta-galactosidase activity levels in GM1 fibroblasts was assayed as follows.
Fibroblasts homozygous for a GM1 gangliosidosis missense mutation (GM11473) (canine fibroblasts homozygous for the GM1 gangliosidosis missense mutation p.R60H equivalent to human p.R59H mutation) were purchased from Coriell Institute for Medical Research (Camden, N.J., USA).
Fibroblasts were seeded at 4×10^4 cells per well in 12-well cell culture plates in Dulbecco's Modified Eagle's Media (DMEM) supplemented with 10% of fetal bovine serum (FBS), 1% penicillin/streptomycin (P/S) (Thermo Fisher Scientific, Waltham, Mass., USA) and incubated at 37° C., 5% CO2 overnight for cell attachment. Subsequently, cells were incubated in the absence or presence of the compounds at the desired concentration for 4 days. After incubation, cells were washed twice with phosphate-buffered saline (“PBS”) and detached using Trypsin-EDTA solution (Sigma Aldrich, St. Louis, Mo., USA) to prepare cell pellets. The pellets were stored at −80° C. until activity assays were performed.
β-Galactosidase activity in cell lysates was measured by using 4-Methylumbelliferyl-β-D-galactopyranoside substrate (Sigma Aldrich, St. Louis, Mo., USA). Briefly, lysates were resuspended in 200 μL of 0.9% NaCl containing 0.01% triton X-100 lysis buffer to promote membrane disruption. The cell suspension was sonicated and centrifuged to remove insoluble materials. Then, lysates were mixed with 4-MU-β-D-galactopyranoside in 100 mM citrate buffer (pH=4) and 100 mM NaCl for 60 min at 37° C. The reaction was terminated by adding 100 mM glycine-NaOH buffer (pH=10.7). The liberated 4-MU was measured on a GloMax Discover plate reader (Promega, Madison, Wis., USA) with excitation at 340 nm and emission at 460 nm. Protein quantification was determined using Pierce BCA Protein Assay Kit (Thermo Fisher Scientific, Waltham, Mass., USA). Measurements were interpolated in a 4-MU standard curve and normalized by protein quantity. Enzyme activities were expressed in treated cells as X-fold increase in comparison with non-treated cells (X=1 represents no enhancement).
The capacity of the Compounds of the Disclosure to produce an increase in β-galactosidase enzyme activity in canine GM1 fibroblasts bearing p.R60H canine GLB1 mutation at concentrations between 6 and 50 μM is denoted as follows: • Increase in comparison with non-treated of >2.5 fold is shown as A. • Increase in comparison with non-treated of >1.7-2.5 fold is shown as B. • Increase in comparison with non-treated of 1.2-1.7 fold is shown as C. • D means that no increase compared with non-treated cells was detected in this method. • ND means “not determined.”

With `Cn1nnc2cc(NC(=O)c3cccc(Nc4nccc5ccc(Cl)cc45)c3)ccc21` [Example 1, 3-((7-Chloroisoquinolin-1-yl)amino)-N-(1-methyl-1H-benzo[d][1,2,3]triazol-5-yl)benzamide] as the compound, how does the “Activity in GM11473 fibroblasts” value read?
Its value is “C (Increase in comparison with non-treated of 1.2-1.7 fold is shown as C)”.

With `O=C(NCC(c1ccccn1)N1CCOCC1)c1cccc(Nc2nccc3ccc(Cl)cc23)c1` (centres unmarked) [Example 2, 3-((7-Chloroisoquinolin-1-yl)amino)-N-(2-morpholino-2-(pyridin-2-yl)ethyl)benzamide] as the compound, how does the “Activity in GM11473 fibroblasts” value read?
The value was “C (Increase in comparison with non-treated of 1.2-1.7 fold is shown as C)”.

`O=C(NCc1ccc2c(c1)OCCO2)c1cccc(Nc2nccc3ccc(Cl)cc23)c1` [Example 3, 3-((7-Chloroisoquinolin-1-yl)amino)-N-((2,3-dihydrobenzo[b][1,4]dioxin-6-yl)methyl)benzamide] was tested. Which “Activity in GM11473 fibroblasts” value did it give?
Its value is “C (Increase in comparison with non-treated of 1.2-1.7 fold is shown as C)”.

Which “Activity in GM11473 fibroblasts” value does the source give for `O=C(NCc1ccccc1)c1cccc(Nc2nccc3ccc(Cl)cc23)c1` [Example 4, N-benzyl-3-((7-chloroisoquinolin-1-yl)amino)benzamide] here?
Its value is “D”.

`O=C(NCc1ccc2c(c1)OCCO2)c1ccc(Nc2nccc3ccc(Cl)cc23)cc1` [Example 5, 4-((7-Chloroisoquinolin-1-yl)amino)-N-((2,3-dihydrobenzo[b][1,4]dioxin-6-yl)methyl)benzamide] was tested. Which “Activity in GM11473 fibroblasts” value did it give?
Its value is “B (Increase in comparison with non-treated of >1.7-2.5 fold is shown as B)”.

For `O=C(NCC(c1cccnc1)N1CCCC1)c1ccc(Nc2nccc3ccc(Cl)cc23)cc1` (centres unmarked) [Example 6, 4-((7-Chloroisoquinolin-1-yl)amino)-N-(2-(pyridin-3-yl)-2-(pyrrolidin-1-yl)ethyl)benzamide], which “Activity in GM11473 fibroblasts” value is on record?
Its value is “D”.

How did the “Activity in GM11473 fibroblasts” value turn out when `O=C(NCC(c1cccnc1)N1CCCC1)c1cc(Nc2nccc3ccc(Cl)cc23)ccn1` (centres unmarked) [Example 7, 4-((7-Chloroisoquinolin-1-yl)amino)-N-(2-(pyridin-3-yl)-2-(pyrrolidin-1-yl)ethyl)picolinamide] was run?
The value was “C (Increase in comparison with non-treated of 1.2-1.7 fold is shown as C)”.

For `O=C(NCc1ccc2c(c1)OCCO2)c1cc(Nc2nccc3ccc(Cl)cc23)ccn1` [Example 8, 4-((7-Chloroisoquinolin-1-yl)amino)-N-((2,3-dihydrobenzo[b][1,4]dioxin-6-yl)methyl)picolinamide], which “Activity in GM11473 fibroblasts” value is on record?
The value was “B (Increase in comparison with non-treated of >1.7-2.5 fold is shown as B)”.

Which “Activity in GM11473 fibroblasts” value does the source give for `O=C(NCc1ccccc1)c1cc(Nc2nccc3ccc(Cl)cc23)ccn1` [Example 9, N-benzyl-4-((7-chloroisoquinolin-1-yl)amino)picolinamide] here?
The value was “B (Increase in comparison with non-treated of >1.7-2.5 fold is shown as B)”.

How did the “Activity in GM11473 fibroblasts” value turn out when `COc1ccc(CNC(=O)c2cc(Nc3nccc4ccc(Cl)cc34)ccn2)cc1` [Example 10, 4-((7-Chloroisoquinolin-1-yl)amino)-N-(4-methoxybenzyl)picolinamide] was run?
Its value is “D”.

`COc1cccc(CNC(=O)c2cc(Nc3nccc4ccc(Cl)cc34)ccn2)c1` [Example 11, 4-((7-Chloroisoquinolin-1-yl)amino)-N-(3-methoxybenzyl)picolinamide] was tested. Which “Activity in GM11473 fibroblasts” value did it give?
The value was “B (Increase in comparison with non-treated of >1.7-2.5 fold is shown as B)”.

How did the “Activity in GM11473 fibroblasts” value turn out when `COc1ccc(CNC(=O)c2cc(Nc3nccc4ccc(Cl)cc34)ccn2)cc1OC` [Example 12, 4-((7-Chloroisoquinolin-1-yl)amino)-N-(3,4-dimethoxybenzyl)picolinamide] was run?
The value was “C (Increase in comparison with non-treated of 1.2-1.7 fold is shown as C)”.

With `O=C(NCc1ccc2nsnc2c1)c1cc(Nc2nccc3ccc(Cl)cc23)ccn1` [Example 13, N-(benzo[c][1,2,5]thiadiazol-5-ylmethyl)-4-((7-chloroisoquinolin-1-yl)amino)picolinamide] as the compound, how does the “Activity in GM11473 fibroblasts” value read?
Its value is “D”.

How did the “Activity in GM11473 fibroblasts” value turn out when `O=C(NC1CCc2ccccc2C1)c1cc(Nc2nccc3ccc(Cl)cc23)ccn1` (centres unmarked) [Example 14, 4-((7-Chloroisoquinolin-1-yl)amino)-N-(1,2,3,4-tetrahydronaphthalen-2-yl)picolinamide] was run?
The value was “B (Increase in comparison with non-treated of >1.7-2.5 fold is shown as B)”.

With `O=C(NCc1ccc2c(c1)OCCCO2)c1cc(Nc2nccc3ccc(Cl)cc23)ccn1` [Example 15, 4-((7-Chloroisoquinolin-1-yl)amino)-N-((3,4-dihydro-2H-benzo[b][1,4]dioxepin-7-yl)methyl)picolinamide] as the compound, how does the “Activity in GM11473 fibroblasts” value read?
Its value is “D”.

How did the “Activity in GM11473 fibroblasts” value turn out when `O=C(NCc1ccc2c(c1)CCO2)c1cc(Nc2nccc3ccc(Cl)cc23)ccn1` [Example 16, 4-((7-Chloroisoquinolin-1-yl)amino)-N-((2,3-dihydrobenzofuran-5-yl)methyl)picolinamide] was run?
Its value is “C (Increase in comparison with non-treated of 1.2-1.7 fold is shown as C)”.

Which “Activity in GM11473 fibroblasts” value does the source give for `O=C(NCc1ccc2c(c1)OCO2)c1cc(Nc2nccc3ccc(Cl)cc23)ccn1` [Example 17, N-(benzo[d][1,3]dioxol-5-ylmethyl)-4-((7-chloroisoquinolin-1-yl)amino)picolinamide] here?
The value was “B (Increase in comparison with non-treated of >1.7-2.5 fold is shown as B)”.

For `O=C(NCCc1ccc2c(c1)OCCO2)c1cc(Nc2nccc3ccc(Cl)cc23)ccn1` [Example 18, 4-((7-Chloroisoquinolin-1-yl)amino)-N-(2-(2,3-dihydrobenzo[b][1,4]dioxin-6-yl)ethyl)picolinamide], which “Activity in GM11473 fibroblasts” value is on record?
Its value is “C (Increase in comparison with non-treated of 1.2-1.7 fold is shown as C)”.

With `O=C(NCc1ccc2c(c1)CCCO2)c1cc(Nc2nccc3ccc(Cl)cc23)ccn1` [Example 19, 4-((7-Chloroisoquinolin-1-yl)amino)-N-(chroman-6-ylmethyl)picolinamide] as the compound, how does the “Activity in GM11473 fibroblasts” value read?
Its value is “C (Increase in comparison with non-treated of 1.2-1.7 fold is shown as C)”.

With `O=C(NCC1CCc2ccccc2C1)c1cc(Nc2nccc3ccc(Cl)cc23)ccn1` (centres unmarked) [Example 20, 4-((7-Chloroisoquinolin-1-yl)amino)-N-((1,2,3,4-tetrahydronaphthalen-2-yl)methyl)picolinamide] as the compound, how does the “Activity in GM11473 fibroblasts” value read?
Its value is “B (Increase in comparison with non-treated of >1.7-2.5 fold is shown as B)”.

With `COc1ccc2ccnc(Nc3ccnc(C(=O)NCc4ccc5c(c4)OCCO5)c3)c2c1` [Example 25, N-((2,3-dihydrobenzo[b][1,4]dioxin-6-yl)methyl)-4-((7-methoxyisoquinolin-1-yl)amino)picolinamide] as the compound, how does the “Activity in GM11473 fibroblasts” value read?
Its value is “C (Increase in comparison with non-treated of 1.2-1.7 fold is shown as C)”.

`COc1ccc2ccnc(Nc3ccnc(C(=O)NCc4ccccc4)c3)c2c1` [Example 26, N-benzyl-4-((7-methoxyisoquinolin-1-yl)amino)picolinamide] was tested. Which “Activity in GM11473 fibroblasts” value did it give?
Its value is “C (Increase in comparison with non-treated of 1.2-1.7 fold is shown as C)”.

How did the “Activity in GM11473 fibroblasts” value turn out when `O=C(NCc1ccc2c(c1)OCCO2)c1ccc(Nc2nccc3ccc(Cl)cc23)cn1` [Example 28, 5-((7-Chloroisoquinolin-1-yl)amino)-N-((2,3-dihydrobenzo[b][1,4]dioxin-6-yl)methyl)picolinamide] was run?
The value was “B (Increase in comparison with non-treated of >1.7-2.5 fold is shown as B)”.
